The test system of the first assay is hypoxia-inducible endogenous VEGF expression. Kind of assay: Assay to evaluate effect on hypoxia-inducible endogenous VEGF expression (VEGF ELISA, HeLa cells). To be noted: HeLa cells cultured 24-48 hours under hypoxic conditions (1% O2, 5% CO2); VEGF in conditioned media by ELISA; read-out: ELISA EC50 (effective concentration required to lower the amount of VEGF translation by 50%). It is filed as cell-based. As to the method:
Assay to Evaluate Effect on Hypoxia-Inducible Endogenous VEGF Expression
The ability of the compounds of the invention to modulate hypoxia-inducible endogenous VEGF expression is analyzed as follows. VEGF protein levels are monitored by an ELISA assay (R&D Systems). Briefly, HeLa cells are cultured for 24-48 hours under hypoxic conditions (1% O2, 5% CO2, balanced with nitrogen) in the presence or absence of a compound of the invention. The conditioned media is then assayed by ELISA, and the concentration of VEGF is calculated from the standard ELISA curve of each assay.
A dose-response analysis is performed using the ELISA assay and conditions described above. A series of, e.g., seven different concentrations are analyzed. In parallel, a dose-response cytotoxicity assay is performed using Cell Titer Glo (Promega) under the same conditions as the ELISA to ensure that the inhibition of VEGF expression is not due to the cytotoxicity. Dose-response curves are plotted using percentage inhibition versus concentration of the compound, and EC50 and CC50 values are generated for each compound with the maximal inhibition set as 100% and the minimal inhibition as 0%.
The most preferred compounds of the invention are those with μM values of 3 or less.
`O=C(Oc1ccccc1Br)N1CCCC1` [Pyrrolidine-1-carboxylic acid 2-bromo-phenyl ester]: the EC50 is > 30 µM.

For `Cc1ccc2cc(OC(=O)N3CC(C)CC(C)C3)ccc2n1` (stereo not shown) [3,5-Dimethyl-piperidine-1-carboxylic acid 2-methyl-quinolin-6-yl ester], the EC50 is > 30 µM.

Regarding `Cc1ccc2cc(OC(=O)N3CCCC3)ccc2n1` [Pyrrolidine-1-carboxylic acid 2-methyl-quinolin-6-yl ester], the EC50 is > 30 µM.

With `Cc1ccc(OC(=O)N2CCCCC2C)c(Br)c1` (stereo not shown) [2-Methyl-piperidine-1-carboxylic acid 2-bromo-4-methyl-phenyl ester], the EC50 is > 30 µM.

As for `CC1CC(C)CN(C(=O)Oc2ccccc2Br)C1` (stereo not shown) [3,5-Dimethyl-piperidine-1-carboxylic acid 2-bromo-phenyl ester], the EC50 was > 30 µM.

The same assay, now with this note: Homo sapiens, HeLa, read-out: ELISA EC50 (effective concentration required to lower the amount of VEGF translation by 50%).
For `Cc1ccc2cc(OC(=O)N3CCCCC3C)ccc2n1` (stereo not shown) [2-Methyl-piperidine-1-carboxylic acid 2-methyl-quinolin-6-yl ester], the EC50 was > 30 µM.

On to `CN1CCN(C(=O)Oc2ncc3ccccc3c2Cl)CC1` [4-Methyl-piperazine-1-carboxylic acid 4-chloro-isoquinolin-3-yl ester], for which the EC50 is > 10 µM.

`CC1CC(C)CN(C(=O)Oc2cc3ccccc3cn2)C1` (stereo not shown) [3,5-Dimethyl-piperidine-1-carboxylic acid isoquinolin-3-yl ester]: the EC50 was > 30 µM.

Regarding `CC1CCN(C(=O)Oc2ccccc2Br)CC1` [4-Methyl-piperidine-1-carboxylic acid 2-bromo-phenyl ester], the EC50 was > 30 µM.

For `CN1CCN(C(=O)Oc2cc3ccccc3cn2)CC1` [4-Methyl-piperazine-1-carboxylic acid isoquinolin-3-yl ester], the EC50 is > 30 µM.

For the molecule `Cc1ccc2cc(OC(=O)N3CCN(C)CC3)ccc2n1` [4-Methyl-piperazine-1-carboxylic acid 2-methyl-quinolin-6-yl ester], the EC50 was > 30 µM.

Regarding `CN(C(=O)Oc1ccc2ccccc2c1)c1ccccc1` [Methyl-phenyl-carbamic acid naphthalen-2-yl ester], the EC50 was > 10 µM.

Turning to `CN(C(=O)Oc1ccc2cc(Br)ccc2c1)c1ccccc1` [Methyl-phenyl-carbamic acid 6-bromo-naphthalen-2-yl ester], the EC50 was > 10 µM.

With `CN(C)C(=O)Oc1ccc2ccccc2c1Br` [Dimethyl-carbamic acid 1-bromo-naphthalen-2-yl ester], the EC50 came out at 4 µM.

In the case of `CC1CCCCN1C(=O)Oc1ccccc1Br` (stereo not shown) [2-Methyl-piperidine-1-carboxylic acid 2-bromo-phenyl ester], the EC50 was > 30 µM.

The assay is the same for the next values; noted with them: Homo sapiens; HeLa cells cultured 24-48 hours under hypoxic conditions (1% O2, 5% CO2); VEGF in conditioned media by ELISA; read-out: ELISA EC50 (effective concentration required to lower the amount of VEGF translation by 50%).
In the case of `CC1CC(C)CN(C(=O)Oc2cc(Cl)c(Cl)cc2Cl)C1` (stereo not shown) [3,5-Dimethyl-piperidine-1-carboxylic acid 2,4,5-trichloro-phenyl ester], the EC50 is 11.2 µM.

For the molecule `CC1CCN(C(=O)Oc2c(Cl)cc(Cl)cc2Cl)CC1` [4-Methyl-piperidine-1-carboxylic acid 2,4,6-trichloro-phenyl ester], the EC50 is > 30 µM.

For the molecule `O=C(Oc1ncc2ccccc2c1Cl)N1CCCCC1` [Piperidine-1-carboxylic acid 4-chloro-isoquinolin-3-yl ester], the EC50 worked out at 2.22 µM.

For the molecule `CS(=O)(=O)Nc1c(OC(=O)N2CCC(C(O)(c3ccccc3)c3ccccc3)CC2)ccc2ccccc12` [4-(Hydroxy-diphenyl-methyl)-piperidine-1-carboxylic acid 1-methanesulfonylamino-naphthalen-2-yl ester], the EC50 was > 5 µM.

With `O=C(Nc1ccc2ccccc2c1Br)N1CCC(Cc2ccccc2)CC1` [4-Benzyl-piperidine-1-carboxylic acid (1-bromo-naphthalen-2-yl)-amide], the EC50 was > 10 µM.

Regarding `CC1CCCC(C)N1C(=O)Oc1cc2ccccc2cn1` (stereo not shown) [2,6-Dimethyl-piperidine-1-carboxylic acid isoquinolin-3-yl ester], the EC50 was > 30 µM.

In the case of `CS(=O)(=O)Nc1c(OC(=O)Oc2ccc3ccccc3c2NS(C)(=O)=O)ccc2ccccc12` [Carbonic acid bis-(1-methanesulfonylamino-naphthalen-2-yl) ester], the EC50 turned out to be 4.3 µM.

On to `Cc1ccc2cc(OC(=O)N3CCCc4ccccc43)ccc2n1` [3,4-Dihydro-2H-quinoline-1-carboxylic acid 2-methyl-quinolin-6-yl ester], for which the EC50 was > 30 µM.

As to `O=C(Oc1cc(Cl)c(Cl)cc1Cl)N1CCCC1` [Pyrrolidine-1-carboxylic acid 2,4,5-trichloro-phenyl ester], the EC50 is > 30 µM.

For `CC1CCCCN1C(=O)Oc1ccc2ccccc2c1Br` (stereo not shown) [2-Methyl-piperidine-1-carboxylic acid 1-bromo-naphthalen-2-yl ester], the EC50 is 0.687 µM.

With `O=C(Nc1ccc2ccccc2c1Cl)N1CCC(C(O)(c2ccccc2)c2ccccc2)CC1` [4-(Hydroxy-diphenyl-methyl)-piperidine-1-carboxylic acid (1-chloro-naphthalen-2-yl)-amide], the EC50 was found to be 0.794 µM.

For `O=C(Oc1cc(Cl)c(Cl)cc1Cl)N1CCc2ccccc21` [2,3-Dihydro-indole-1-carboxylic acid 2,4,5-trichloro-phenyl ester], the EC50 was > 30 µM.

Turning to `CC(=O)c1c(OC(=O)N2CCc3cccnc32)ccc2ccccc12` [2,3-Dihydro-pyrrolo[2,3-b]pyridine-1-carboxylic acid 1-acetyl-naphthalen-2-yl ester], the EC50 is > 30 µM.

Turning to `CC1CC(C)CN(C(=O)Oc2ccc3ccccc3c2NS(C)(=O)=O)C1` (stereo not shown) [3,5-Dimethyl-piperidine-1-carboxylic acid 1-methanesulfonylamino-naphthalen-2-yl ester], the EC50 was > 5 µM.

As for `CCc1cccc(NC(=O)Oc2ccc3ccccc3c2)c1` [(3-Ethyl-phenyl)-carbamic acid naphthalen-2-yl ester], the EC50 is > 30 µM.

As for `Cc1ccc2cc(OC(=O)N3CCc4ccccc43)ccc2n1` [2,3-Dihydro-indole-1-carboxylic acid 2-methyl-quinolin-6-yl ester], the EC50 was > 30 µM.

In the case of `O=C(Oc1ccc2ccccc2c1Br)N1CCc2ccccc2C1` [3,4-Dihydro-1H-isoquinoline-2-carboxylic acid 1-bromo-naphthalen-2-yl ester], the EC50 was found to be 0.174 µM.

For the molecule `O=C(Oc1c(Cl)cc(Cl)cc1Cl)N1CCCC1` [Pyrrolidine-1-carboxylic acid 2,4,6-trichloro-phenyl ester], the EC50 turned out to be 23 µM.

As for `O=C(Oc1ccc2ccccc2c1Br)N1CCC(Cc2ccccc2)CC1` [4-Benzyl-piperidine-1-carboxylic acid 1-bromo-naphthalen-2-yl ester], the EC50 stood at 0.259 µM.

`CC1CCCCN1C(=O)Oc1c(Cl)cc(Cl)cc1Cl` (stereo not shown) [2-Methyl-piperidine-1-carboxylic acid 2,4,6-trichloro-phenyl ester]: the EC50 is > 30 µM.

Consider `O=C(Oc1ccccc1Br)N1CCCCC1` [Piperidine-1-carboxylic acid 2-bromo-phenyl ester], for which the EC50 was > 30 µM.

Take `O=C(Oc1cc2ccccc2cn1)N1CCc2ccccc2C1` [3,4-Dihydro-1H-isoquinoline-2-carboxylic acid isoquinolin-3-yl ester]: the EC50 is > 30 µM.

On to `Cc1ccc(OC(=O)N2CCC(C)CC2)c(Br)c1` [4-Methyl-piperidine-1-carboxylic acid 2-bromo-4-methyl-phenyl ester], for which the EC50 was > 30 µM.

Regarding `O=C(Oc1cc(Cl)c(Cl)cc1Cl)N1CCCc2ccccc21` [3,4-Dihydro-2H-quinoline-1-carboxylic acid 2,4,5-trichloro-phenyl ester], the EC50 came out at 11.2 µM.

As to `O=C(NCC1CCCCC1)Oc1ccc2ccccc2c1Br` [Cyclohexylmethyl-carbamic acid 1-bromo-naphthalen-2-yl ester], the EC50 was > 30 µM.

For the molecule `CC(=O)c1c(OC(=O)N2CCC(Cc3ccccc3)CC2)ccc2ccccc12` [4-Benzyl-piperidine-1-carboxylic acid 1-acetyl-naphthalen-2-yl ester], the EC50 worked out at 2.6 µM.

Regarding `O=C(Nc1ccc2ccccc2c1Br)N1CCC(C(O)(c2ccccc2)c2ccccc2)CC1` [4-(Hydroxy-diphenyl-methyl)-piperidine-1-carboxylic acid (1-bromo-naphthalen-2-yl)-amide], the EC50 turned out to be 0.22 µM.

On to `CS(=O)(=O)Nc1c(OC(=O)N2CCCCC2)ccc2ccccc12` [Piperidine-1-carboxylic acid 1-methanesulfonylamino-naphthalen-2-yl ester], for which the EC50 is > 5 µM.

Turning to `O=C(Nc1ccc2ccccc2c1Br)N1CCN(c2ccccc2)CC1` [4-Phenyl-piperazine-1-carboxylic acid (1-bromo-naphthalen-2-yl)-amide], the EC50 was > 10 µM.

Regarding `Cc1ccc(OC(=O)N2CC(C)CC(C)C2)c(Br)c1` (stereo not shown) [3,5-Dimethyl-piperidine-1-carboxylic acid 2-bromo-4-methyl-phenyl ester], the EC50 is > 30 µM.

On to `O=C(Oc1ccc2cc(Br)ccc2c1)N1CCOCC1` [Morpholine-4-carboxylic acid 6-bromo-naphthalen-2-yl ester], for which the EC50 is > 10 µM.

The values above are taken from patent US8143257B2, “Substituted phenols as active agents inhibiting VEGF production” (PTC Therapeutics, Inc., priority 2004, dated 2012).
